This note sets out measurements from US12304897B2, “15-PGDH inhibitors” (KYORIN PHARMACEUTICAL CO., LTD., priority 2019, dated 2025).

A value given as a limit tells only on which side of the number the result lay.

For the assay, the target named is recombinant human 15-PGDH (Homo sapiens (Human), UniProt P15428). Nature of the assay: 15-PGDH enzyme inhibition test. Type of assay: biochemical. As to conditions: 4 nM recombinant human 15-PGDH, 30 μM PGE2, 1 mM NAD+, fluorescence 340/440 nm after 60 min. On the procedure: 15-PGDH Enzyme Inhibition Test
Sequence of recombinant human 15-PGDH (P15428 whole entry): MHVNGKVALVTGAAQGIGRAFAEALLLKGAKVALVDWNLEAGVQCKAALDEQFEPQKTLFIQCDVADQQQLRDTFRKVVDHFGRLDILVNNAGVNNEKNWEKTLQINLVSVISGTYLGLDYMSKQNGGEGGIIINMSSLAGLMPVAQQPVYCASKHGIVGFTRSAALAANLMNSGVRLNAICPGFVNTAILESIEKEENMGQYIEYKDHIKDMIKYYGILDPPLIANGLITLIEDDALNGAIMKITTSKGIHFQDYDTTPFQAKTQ
Test compounds and 4 nM recombinant human 15-PGDH (R&D systems) in 50 mM Tris-HCl (pH 8.0) containing 0.01% TWEEN 20 (Sigma) and 0.01% bovine gamma globulin (Sigma) were put into 384 Flat Bottom Black plates (Corning, 3820) and allowed to stand for 12 minutes at room temperature. Then, 30 μM PGE2 (Cayman chemical) and 1 mM NAD^+ (Sigma) were added to start reaction. Sixty minutes after the start of reaction, signals were measured at an excitation wavelength of 340 nm and a fluorescence emission wavelength of 440 nm using Synergy 2 (BioTeck). The intensity of the fluorescent signal obtained when an assay buffer was added in place of the test compounds and NAD^+ was defined as 100% and that obtained with the addition of NAD^+ was defined as 0%.
Take `O=C(c1ccc2c(-c3ccc4c(c3)CN(CC3CC3)C4=O)cccc2c1)N1CCC(F)(F)CC1` [compound 55]: the IC50 was under 3 nM.
On to `CNC(=O)c1ccc(-c2cccc3cc(C(=O)N4CCC(F)(F)CC4)ccc23)cc1F` [compound 56], for which the IC50 lay in the range of 3 to 10 nM.
Consider `O=C(c1ccc2c(-c3cnc4c(=O)[nH]ncc4c3)cccc2c1)N1CCC(F)(F)CC1` [compound 57], for which the IC50 was under 3 nM.
`C[C@@H]1CCN(C(=O)c2ccc3c(-c4ccc5c(c4)CN(C)C5=O)cccc3c2)C1` [compound 58]: the IC50 is under 3 nM.
Regarding `CN1Cc2cc(-c3c(F)ccc4cc(C(=O)N5CCC(F)(F)CC5)ccc34)ccc2C1=O` [compound 59], the IC50 is under 3 nM.
The figure for `C[C@H]1CCCN(C(=O)c2ccc3c(N4CCc5c(cc[nH]c5=O)C4)cccc3c2)C1` [compound 60] is under 3 nM; for `O=C(c1ccc2c(N3CCc4c(cc[nH]c4=O)C3)cccc2c1)N1CCCCC1` [compound 62] it is under 3 nM.
With `CN1Cc2cc(-c3cccc4cc(C(=O)N5CCC[C@@H](F)C5)ccc34)ccc2C1=O` [compound 63], the IC50 is under 3 nM.
Consider `O=C(c1ccc2c(-c3ccc4c(=O)[nH]ccc4c3)cccc2c1)N1CCCCC1` [compound 64], for which the IC50 is under 3 nM.
Consider `Cn1nc2cc(-c3cccc4cc(C(=O)N5CCC(F)(F)CC5)ccc34)ccn2c1=O` [compound 65], for which the IC50 was under 3 nM.
On to `CCN1Cc2cc(-c3cccc4cc(C(=O)N5CCC(F)(F)CC5)ccc34)ccc2C1=O` [compound 66], for which the IC50 is under 3 nM.
In the case of `O=C(c1ccc2c(-c3cnc4c(=O)[nH]ccc4c3)cccc2c1)N1CCC(F)(F)CC1` [compound 67], the IC50 was under 3 nM.
In the case of `O=C(O)c1ccc(-c2cccc3cc(C(=O)N4CCC(F)(F)CC4)ccc23)cc1F` [compound 68] it was under 3 nM; in that of `CN1Cc2cc(-c3cncc4cc(C(=O)N5CCCCC5)ccc34)ccc2C1=O` [compound 69], under 3 nM; in that of `CN1Cc2cc(-c3cccc4nc(C(=O)N5CCCCC5)ccc34)ccc2C1=O` [compound 70], at least 10 nM.
Take `O=C(c1ccc2c(-c3ccc4c(ccc[n+]4[O-])c3)cccc2c1)N1CCC(F)(F)CC1` [compound 71]: the IC50 is under 3 nM.
On to `C[C@H]1CCCN(C(=O)c2ccc3c(-c4cnc5c(c4)CN(C)C5=O)cccc3c2)C1` [compound 72], for which the IC50 is under 3 nM.
On to `CN1Cc2cc(-c3ccc4cc(C(=O)N5CCC(F)(F)CC5)ccc4c3)ccc2C1=O` [compound 73], for which the IC50 is at least 10 nM.
In the case of `Cn1nc2n(c1=O)CCN(c1cccc3cc(C(=O)N4CCCCC4)ccc13)C2` [compound 74] it was under 3 nM; in that of `Cn1nc2n(c1=O)CCN(c1cccc3cc(C(=O)N4CCC(F)(F)CC4)ccc13)C2` [compound 75], under 3 nM; in that of `O=C(c1ccc2c(-c3ccc4ncccc4c3)cccc2c1)N1CCC(F)(F)CC1` [compound 76], under 3 nM.
With `Cc1ccc2c(n1)CCN(c1cccc3cc(C(=O)N4CCCCC4)ccc13)C2` [compound 77], the IC50 was under 3 nM.
Consider `CN1Cc2cc(-c3cccc4cc(C(=O)N5CCC(F)(F)CC5)ccc34)cnc2C1=O` [compound 78], for which the IC50 is under 3 nM.
Take `CN1CCC2(CCN(c3cccc4cc(C(=O)N5CCCCC5)ccc34)CC2)C1=O` [compound 79]: the IC50 is at least 10 nM.
With `O=C(c1ccc2c(-c3ccc4c(=O)[nH]ncc4c3)cccc2c1)N1CCCC1` [compound 80], the IC50 is under 3 nM.
Take `C[C@H]1CCCN(C(=O)c2ccc3c(-c4ccc5c(=O)[nH]ncc5c4)cccc3c2)C1` [compound 81]: the IC50 is under 3 nM.
Turning to `O=C1NCc2cc(-c3cccc4cc(C(=O)N5CCC(F)(F)CC5)ccc34)cnc21` [compound 82], the IC50 was under 3 nM.
Turning to `Cc1n[nH]c(=O)c2ccc(-c3cccc4cc(C(=O)N5CCC(F)(F)CC5)ccc34)cc12` [compound 83], the IC50 is under 3 nM.
Consider `CC1CCN(C(=O)c2ccc3c(-c4ccc5c(=O)[nH]ncc5c4)cccc3c2)CC1` [compound 84], for which the IC50 was under 3 nM.

The term IC50 denotes the concentration that inhibits the measured activity by half.
